From patent US4612185A, “Methods and compositions for enhancing magnetic resonance imaging” (Mallinckrodt, Inc., priority 1984, dated 1986)

Columns and labels:
[1] = system: liver, heart, kidney, skeletal muscle, spleen, blood and urine samples; assay: Fluorine analysis of rabbit tissue, blood and urine samples by MR spectroscopy; format: in vivo; conditions: 4 mmol F/kg intravenous, conclusion of experiment
Text: (§1) An anesthetized rabbit was placed in a 12 inch bore, 1.9 Tesla MRI magnet. An RF coil ([…], I.D., 4 cm, O.D.) was placed on the surface of the liver or a kidney which were excised surgically. Fluorine spectra were obtained following 4 mmol F/kg intravenous doses of a solution of sodium [2-(trifluoromethyl)benzamido]acetate (20%, w/v, 2.2 M F, of the compound).
At the conclusion of the experiment, the rabbit was killed and liver, heart, kidney, skeletal muscle, spleen, blood and urine samples were analyzed for fluorine by MR spectroscopy.

liver or kidney = assay: In vivo fluorine (19F) MR spectra of liver and kidney in anesthetized rabbit; conditions: 4 mmol F/kg intravenous, 1.9 Tesla
Text: as §1

mice = assay: Acute intravenous toxicity in mice, 7-day observation, LD50 by Litchfield and Wilcoxon; format: in vivo, mouse (Swiss ICR CD-1); conditions: for MORTALITIES/NUMBER TREATED / AVERAGE SURVIVOR WEEKLY BODY WEIGHT CHANGE: single intravenous; for MORTALITIES/NUMBER TREATED: 7 days; for AVERAGE SURVIVOR WEEKLY BODY WEIGHT CHANGE: survivors
Procedure: Sodium [2-(trifluoromethyl) benzamido] acetate was prepared as a 20% w/v solution in sterile water for injection and the pH was adjusted to 7.0 using 0.1 N HCl.
A total of 14 mice (7 male, 24.6-30.0 g; 7 females, 18.6-26.0 g; Swiss ICR CD-1, Charles River) were used. Animals were housed according to standard operating procedures and marked for identification with picric acid.
Groups of 2-3 mice received single intravenous injections of sodium [2-(trifluoromethyl)benzamido]acetate according to the followinq schedule:
Measured single doses were injected into the lateral tail vein at a rate of 1 ml/min. The animals were observed immediately after dosing and during the 7-day observation period for pharmacotoxic reactions. Recording of terminal body weights and general necrospy of the thoracic and abdominal organs was performed after 7 days. An LD50 value was calculated using the method of Litchfield and Wilcoxon (J. Pharmacol. Exp. Ther. 96:99,1949).

O=C([O-])CNC(=O)c1ccccc1C(F)(F)F.[Na+] [sodium [2-(trifluoromethyl)benzamido]acetate]
fluorine concentrations in kidney, urine and blood [1]: highest concentrations of fluorine | fluorine in other tissue specimens ([1]; specimens other than kidney, urine, blood): minimal fluorine detected | fluorine spectra in liver and kidney (liver or kidney; both liver and kidney): only a single peak which was the same as the spectrum from a solution of sodium [2-(trifluoromethyl)benzamido]acetate | fluorine signal intensity in kidney (liver or kidney; kidney): peaked very rapidly in the kidney and remained elevated for several minutes | fluorine signal intensity in liver (liver or kidney; liver versus kidney): less than that for the kidney and took a longer time to peak | MORTALITIES/NUMBER TREATED (mice; 1000 mg/kg): 0/2 | AVERAGE SURVIVOR WEEKLY BODY WEIGHT CHANGE (mice; 1000 mg/kg): 0.1 g | MORTALITIES/NUMBER TREATED (mice; 2000 mg/kg): 0/2 | AVERAGE SURVIVOR WEEKLY BODY WEIGHT CHANGE (mice; 2000 mg/kg): 2.2 g | MORTALITIES/NUMBER TREATED (mice; 4000 mg/kg): 0/2 | AVERAGE SURVIVOR WEEKLY BODY WEIGHT CHANGE (mice; 4000 mg/kg): 1.8 g | MORTALITIES/NUMBER TREATED (mice; 6000 mg/kg): 1/3 | AVERAGE SURVIVOR WEEKLY BODY WEIGHT CHANGE (mice; 6000 mg/kg): 1.0 g | MORTALITIES/NUMBER TREATED (mice; 7000 mg/kg): 2/3 | AVERAGE SURVIVOR WEEKLY BODY WEIGHT CHANGE (mice; 7000 mg/kg): 2.7 g | MORTALITIES/NUMBER TREATED (mice; 8000 mg/kg): 2/2 | reactions preceding death (mice; intravenous, all deaths): mild convulsions | time of deaths after treatment (mice; intravenous, all deaths): ≤ 10 min | time after treatment within which all survivors appeared normal (mice; intravenous, all survivors): ≤ 5 h | toxic reactions (hyperactivity) (mice; intravenous, doses=2000 mg/kg (so in the source)): mild hyperactivity | toxic reactions (hypoactivity) (mice; intravenous, doses=4000 mg/kg (so in the source)): dose-related hypoactivity | body weight of one survivor, week after treatment (mice; intravenous, one survivor dosed with 1000 mg): body weight loss | body weight of all other survivors (mice; intravenous, one week): weight gains | estimated mouse intravenous LD50 (mice; mouse, intravenous, compound dose): 6500 mg/kg | intravenous toxicity profile (mice; summary statement of toxicity studies): extremely good intravenous toxicity profile | necropsy findings (mice; thoracic and abdominal organs, following one week observation): No abnormalities were observed
